Series [1] deals with Venturia inaequalis. The experiment in a line: Venturia test (apple)/protective. Format: in vivo. The settings on record: 100 ppm active compound, protective, evaluation 10 days after inoculation. The method, then:
Solvents: 24.5 parts by weight of acetone • 24.5 parts by weight of dimethylacetamide Emulsifier: 1 part by weight of alkylaryl polyglycol ether
(§1) To produce a suitable preparation of active compound, 1 part by weight of active compound is mixed with the stated amounts of solvents and emulsifier, and the concentrate is diluted with water to the desired concentration.
To test for protective activity, young plants are sprayed with the active compound preparation at the stated application rate. After the spray coating has dried on, the plants are inoculated with an aqueous conidia suspension of the apple scab pathogen Venturia inaequalis and then remain in an incubation cabin at about 20° C. and 100% relative atmospheric humidity for 1 day.
(§2) The plants are then placed in a greenhouse at about 21° C. and a relative atmospheric humidity of about 90%.
(§3) Evaluation is carried out 10 days after the inoculation. 0% means an efficacy which corresponds to that of the control, whereas an efficacy of 100% means that no infection is observed.

The subject of series [2] is Alternaria solani. As to the kind of experiment: Alternaria test (tomato)/protective. Format: in vivo. How it is done:
(§4) Solvent: 49 parts by weight of N,N-dimethylformamide
(§5) Emulsifier: 1 part by weight of alkylaryl polyglycol ether
To produce a suitable preparation of active compound, 1 part by weight of active compound is mixed with the stated amounts of solvent and emulsifier, and the concentrate is diluted with water to the desired concentration.
To test for protective activity, young tomato plants are sprayed with the active compound preparation at the stated application rate. 1 day after the treatment, the plants are inoculated with a spore suspension of Alternaria solani and then remain at 100% rel. humidity and 22° C. for 24 h. The plants then remain at 96% rel. atmospheric humidity and a temperature of 20° C.
(§6) Evaluation is carried out 7 days after the inoculation. 0% means an efficacy which corresponds to that of the control, whereas an efficacy of 100% means that no infection is observed.

Series [3] concerns Phytophthora infestans. Format: in vivo.
The subject of series [4] is Botrytis cinerea. The experiment in a line: Botrytis test (bean)/protective. The series is classed as in vivo. The settings on record: 100 ppm active compound, protective, evaluation 2 days after inoculation. How it is done:
(§7) Solvents: 24.5 parts by weight of acetone
(§8) • 24.5 parts by weight of dimethylacetamide Emulsifier: 1 part by weight of alkylaryl polyglycol ether
as §1
To test for protective activity, young plants are sprayed with the active compound preparation at the stated application rate. After the spray coating has dried on, 2 small pieces of agar colonized by Botrytis cinerea are placed onto each leaf. The inoculated plants are placed in a dark chamber at about 20° C. and 100% relative atmospheric humidity.
2 days after the inoculation, the size of the infected areas on the leaves is evaluated. 0% means an efficacy which corresponds to that of the control, whereas an efficacy of 100% means that no infection is observed.

Series [5] deals with Sphaerotheca fuliginea. The experiment in a line: Sphaerotheca test (cucumber)/protective. The series is classed as in vivo. The method, then:
as §4, §5
(§9) To produce a suitable preparation of active compounds, 1 part by weight of active compound is mixed with the stated amounts of solvent and emulsifier, and the concentrate is diluted with water to the desired concentration.
To test for protective activity, young cucumber plants are sprayed with the active compound preparation at the stated application rate. 1 day after the treatment, the plants are inoculated with a spore suspension of Sphaerotheca fuliginea. The plants are then placed in a greenhouse at 70% rel. atmospheric humidity and a temperature of 23° C.
as §6

Series [6] has as its system Leptosphaeria nodorum. As to the kind of experiment: Leptosphaeria nodorum test (wheat)/protective. Format: in vivo. The method, then: as §4, §5, §9
To test for protective activity, young wheat plants are sprayed with the active compound preparation at the stated application rate. 1 day after the treatment, the plants are inoculated with an aqueous spore suspension of Leptosphaeria nodorum and then remain at 100% rel. atmospheric humidity and 22° C. for 48 h. The plants are then placed in a greenhouse at 90% rel. atmospheric humidity and a temperature of 22° C.
Evaluation is carried out 7-9 days after the inoculation. 0% means an efficacy which corresponds to that of the control, whereas an efficacy of 100% means that no infection is observed.

Series [7] relates to Pyrenophora teres. The experiment in a line: Pyrenophora teres test (barley)/protective. Format: in vivo. Put shortly: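 Efficacy, read 7-9 days after spore inoculation, runs from 0% (equal to untreated control) to 100% (no infection). Barley sprayed with water-diluted DMF/emulsifier formulation was inoculated one day later, incubated 48 h at 22° C. and 100% rel. humidity, then held at 20° C. and 80% humidity.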

The subject of series [8] is Fusarium graminearum. As to the kind of experiment: microbe, parasite or virus in culture. Format: cell-based. Conditions: for inhibition at 50 µM: Fusarium graminearum, 72 h, read-out: % inhibition of the fungal growth of Fusarium graminearum at 50 μM.
Series [9] deals with DON/AcDON production. The experiment in a line: microbe, parasite or virus in culture. Format: cell-based, Fusarium graminearum. Conditions: 7 days at 28° C.; for inhibition at 50 µM: Fusarium graminearum, 168 h.
A short description of series [10]: log P determination by HPLC retention times (alkan-2-one calibration).
In series [11] the test system is Uromyces appendiculatus. The experiment in a line: Uromyces test (bean)/protective. Format: in vivo. Conditions: in vivo. How it is done:
as §7, §8, §1
To test for protective activity, young plants are sprayed with the active compound preparation at the stated application rate. After the spray coating has dried on, the plants are inoculated with an aqueous spore suspension of the bean rust pathogen Uromyces appendiculatus and then remain in an incubation cabin at about 20° C. and 100% relative atmospheric humidity for 1 day.
as §2, §3

Where [12] appears, read: 500 ppm active compound, tomato, protective, evaluation 7 days after inoculation.
[13] abbreviates: log P(HCOOH), HCOOH, preparation examples in the text.
The mark [14] stands for this setting: log P, values marked [a] in Table 1.
Setting [15] is: log P, values marked [b] in Table 1.
Setting [16] is: 500 ppm active compound, cucumber, protective, evaluation 7 days after inoculation.
The mark [17] stands for this setting: 500 ppm active compound, wheat, protective, evaluation 7-9 days after inoculation.
Setting [18] is: 500 ppm active compound, barley, protective, evaluation 7-9 days after inoculation.

The structures appear in SMILES notation. Where two headings read alike, the source gives them in different places.

These results are taken from patent US8507472B2 (priority 2010, dated 2013).

For the compound `CC1CCc2c(-c3ccncc3)c(-c3ccc(F)cc3)nn21` (centres unmarked) [Example 74], the efficacy in % in series [1] was 95%; in [2] (in vivo), 95%; in [3] (in vivo), 90%; in series [4] it was 100%; in series [5] (in vivo) it was 93%; in series [6] (in vivo), 88%. Besides, the efficacy in % in series [7] (in vivo) worked out at 100%.
Usually inhibition stands for the relative decrease from the control value, in per cent. What is called chromatographic logP is a lipophilicity value derived from retention on a column. Low readings indicate lower lipophilicity, high ones higher lipophilicity. Consider `Fc1ccc(-c2nn3c(c2-c2ccncc2)CCCC3)cc1` [Example 2, 2-(4-Fluorophenyl)-3-(pyridin-4-yl)-4,5,6,7-tetrahydropyrazolo[1,5-a]pyridine], for which the efficacy in % in [1] is recorded as 95%; in series [2] (setting [12]), 94%; in series [3] (setting [12]), 94%; in series [4], 100%; in series [5] (setting [16]), 91%; in series [6] (setting [17]) it was 80%. In series [7] (setting [18]), this compound registered an efficacy in % of 95%. For the same compound, the inhibition at 50 µM in [8] is 99%; in series [9], 100%. Moreover, the chromatographic logP in [10] (setting [13]) was determined as 1.03; in series [10] (setting [14]) it was 1.03; in series [10] (setting [15]), 2.43.
Consider `COC1CCCn2nc(-c3ccc(F)cc3)c(-c3ccncc3)c21` (centres unmarked) [Example 85], for which the efficacy in % in [3] (in vivo) amounted to 90%; in [11], 85%; in [4], 100%; in series [5] (in vivo), 85%; in series [6] (in vivo), 75%; in series [7] (in vivo), 100%.
Consider `Clc1ccc(-c2nn3c(c2-c2ccncc2)CCC3)cc1` [Example 11], for which the efficacy in % in series [3] (in vivo) is 80%; in series [5] (in vivo), 88%; in series [6] (in vivo), 70%; in [7] (in vivo) it was 70%. Further, the “% inhibition of the fungal growth of Fusarium graminearum at 50 μM” value (“% inhibition of the fungal growth … at 50 μM” for short) in [8] is 92%. The “% inhibition of DON/AcDON at 50 μM” value in series [9] stood at 100%.
With `CC(=O)Nc1cc(-c2c(-c3cccs3)nn3c2CCCC3)ccn1` [Example 87], the efficacy in % in series [2] (in vivo) worked out at 80%; in series [3] (in vivo), 90%; in [11] it was 93%; in series [4], 100%; in series [5] (in vivo), 95%; in series [6] (in vivo) it was 70%. In addition, the efficacy in % in series [7] (in vivo) was determined as 90%.
Turning to `Fc1ccc(-c2nn3c(c2-c2ccncc2)CCC3)cc1` [Example 7], the efficacy in % was determined as 76% in series [1]; 95% in series [2] (in vivo); 95% in [3] (in vivo); 95% in series [4]; 90% in series [5] (in vivo); 80% in series [7] (in vivo). The “% inhibition of the fungal growth … at 50 μM” value in series [8] was 100%. In [9], the “% inhibition of DON/AcDON at 50 μM” value was found to be 99%.
As for `CC(C)Nc1cc(-c2c(-c3ccccc3)nn3c2CCC3)ccn1` [Example 70, 4-[2-(Phenyl)-5,6-dihydro-4H-pyrrolo[1,2-b]pyrazol-3-yl]-N-isopropylpyridine-2-amine], the efficacy in % is 100% in series [1]; 90% in [2] (setting [12]); 95% in series [3] (setting [12]); 94% in [5] (setting [16]); 90% in series [6] (setting [17]); 80% in [7] (setting [18]). Further, the values for the chromatographic logP in [10] (setting [13]) and in series [10] (setting [15]) were 1.21 and 2.69, respectively.
Turning to `c1ccc(-c2nn3c(c2-c2ccncc2)CCCC3)cc1` [Example 9], the efficacy in % in series [1] is 95%; in [2] (in vivo) it was 100%; in series [3] (in vivo) it was 90%; in [4], 93%; in series [5] (in vivo) it was 86%; in series [6] (in vivo), 95%. The compound further returned an efficacy in % in series [7] (in vivo) of 94%. The “% inhibition of the fungal growth … at 50 μM” value in series [8] came to 100%. In addition, in [9], the “% inhibition of DON/AcDON at 50 μM” value is 99%.
As to `Nc1cc(-c2c(-c3ccc(F)cc3)nn3c2CCCC3)ccn1` [Example 3, 4-[2-(4-Fluorophenyl)-4,5,6,7-tetrahydropyrazolo[1,5-a]pyridin-3-yl]pyridine-2-amine], the efficacy in % in series [2] (setting [12]) is listed as 95%; in [3] (setting [12]) it was 90%; in [6] (setting [17]), 89%; in series [7] (setting [18]) it was 95%. Besides, the inhibition at 50 µM was 30% in [8] and 94% in series [9]. Further, the chromatographic logP in series [10] (setting [13]) was determined as 1.21; in [10] (setting [14]), 1.21; in [10] (setting [15]), 2.05.
Turning to `CC(C)Nc1cc(-c2c(-c3ccc(F)cc3)nn3c2CCC3)ccn1` [Example 52], the efficacy in % is listed as 94% in series [1]; 90% in series [2] (in vivo); 95% in [3] (in vivo); 78% in series [4]; 80% in series [7] (in vivo). For the same compound, in series [8], the “% inhibition of the fungal growth … at 50 μM” value is given as 19%. For the same compound, the “% inhibition of DON/AcDON at 50 μM” value in [9] worked out at 99%.
As to `O=C(Cc1ccccc1)Nc1cc(-c2c(-c3ccccc3)nn3c2CCCC3)ccn1` [Example 35], the efficacy in % stood at 95% in series [1]; 94% in [2] (in vivo); 80% in series [3] (in vivo); 96% in [4]; 90% in series [6] (in vivo); 78% in series [7] (in vivo).
Regarding `CC1CCc2c(-c3ccnc(NC(=O)C4CC4)c3)c(-c3ccc(F)cc3)nn21` (centres unmarked) [Example 78], the efficacy in % in [1] is 100%; in series [11], 94%; in series [4] it was 100%; in [5] (in vivo), 100%; in series [6] (in vivo), 100%; in series [7] (in vivo) it was 95%.
For `c1csc(-c2nn3c(c2-c2ccncc2)CCCC3)c1` [Example 62], the efficacy in % in [2] (in vivo) turned out to be 94%; in series [3] (in vivo), 80%; in [6] (in vivo) it was 78%; in series [7] (in vivo), 95%. Further, the “% inhibition of the fungal growth … at 50 μM” value in series [8] turned out to be 35%. Further, in series [9], the “% inhibition of DON/AcDON at 50 μM” value was found to be 100%.
`c1ccc(-c2nn3c(c2-c2ccncc2)CCC3)cc1` [Example 10]: the efficacy in % amounted to 70% in series [2] (in vivo); 70% in [3] (in vivo); 94% in [5] (in vivo); 80% in series [6] (in vivo); 80% in series [7] (in vivo). Further, the “% inhibition of the fungal growth … at 50 μM” value in series [8] is 87%. In addition, the “% inhibition of DON/AcDON at 50 μM” value in series [9] is on record as 100%.
